Measurements: ChEMBL document CHEMBL4483862, “Open-source discovery of chemical leads for next-generation chemoprotective antimalarials” (2018)

System: Plasmodium berghei
Assay: Luciferase/luciferin-expressing antifolate-resistant parasites were used to infect a culture of HepG2 cells that were pre-incubated with compounds. Infected hepatocytes emit light due to the luciferase reaction. Assay results are presented as the percent inhibition of light emission compared to control. […]
Assay type: functional
Details: sporozoite; for IC50: read-out: LUCIFERASE INFECTION ASSAY - IC50; for IC90: read-out: LUCIFERASE INFECTION ASSAY - IC90

Row | SMILES | IC50 [µM] | IC90 [µM]
1 | FC(F)(F)c1cccc(NC(S)=Nc2ccc(Cl)c(Cl)c2)c1 | > 9.04 | > 9.04
2 | CN1C=C/C(=C/c2ccc3ccccc3[n+]2C)c2ccccc21 | 1.06 | 5.18
3 | O=C(CC1(O)C(=O)Nc2ccc(Br)cc21)c1ccc2c(c1)OCO2 (stereo not drawn) | > 8.46 | > 8.46
4 | CN(NS(=O)(=O)c1ccc(Cl)cc1)c1cnn(C)c(=O)c1Cl | > 9.09 | > 9.09
5 | COC(=O)c1cccc(NC(S)=Nc2ccc(Cl)c(Cl)c2)c1 | > 9.29 | > 9.29
6 | CN(C)C(=O)Oc1ccc(Br)cc1C(=O)Nc1ccc(F)c(Cl)c1 | > 7.94 | > 7.94
7 | Clc1ccc2c(c1)nnc1nnnn12 | 1.66 | 1.91
8 | CN1/C(=C/C=C/c2ccc3ccccc3[n+]2C)C=Cc2ccccc21 | 2.47 | 2.78
9 | N/C(CC(=O)Nc1ccc(F)cc1F)=N\O | > 14.4 | > 14.4
10 | COc1cc(NC(=O)c2ccc([N+](=O)[O-])o2)cc(C(F)(F)F)c1 | > 9.99 | > 9.99
11 | Oc1c(Cl)cc(Cl)cc1-c1ccn[nH]1 | > 14.4 | > 14.4
12 | Cc1nn(C(C)(C)C)c(C)c1/C=N/OC(=O)Nc1ccc(Cl)cc1 | 0.0825 | 0.27
13 | CN(/N=C/c1cc(Cl)cc(Cl)c1O)C(=S)NC(C)(C)C | > 9.87 | > 9.87
14 | O=C(Nc1ccc(F)c(Cl)c1)c1ccccc1O | > 12.4 | > 12.4
15 | CN(C)c1cc(-c2cc(Cl)sc2Cl)oc(=O)c1Cl | > 10.2 | > 10.2
16 | Nc1nc(-c2ccc(OCc3ccc(F)cc3)cc2)cs1 | > 8.66 | > 8.66
17 | Cc1ccc(C(C=CC(C#N)C#N)=Nc2ccc(Cl)cc2)cc1 | > 10.3 | > 10.3
18 | O=[N+]([O-])c1cc(Cl)ccc1Oc1c(Cl)cccc1Cl | > 10.4 | > 10.4
19 | O=[N+]([O-])c1ccc(/C=[N+](\[O-])c2ccccc2)s1 | > 13.3 | > 13.3
20 | Cc1cc(C)c(O)c(/C=N/NC(=S)NC(C)(C)C)c1 | > 11.8 | > 11.8
21 | COc1ccccc1Oc1ccc(C(F)(F)F)cc1NC(=O)c1sc2ccccc2c1Cl | > 6.91 | > 6.91
22 | Brc1ccc(-c2cc(-c3ccccc3)cc(-c3ccccc3)n2)cc1 | > 8.54 | > 8.54
23 | COc1cccc(/C=N/NC(=S)NC2CC3CCC2C3)c1O (stereo not drawn) | > 10.3 | > 10.3

Row | SMILES | IC50 [µM] | IC90 [µM]
24 | COc1c(Cl)cc(Cl)c(OC)c1C(=O)NC(=O)Nc1cc(C(F)(F)F)cc(C(F)(F)F)c1 | 2.06 | 2.23
25 | O=C(Nc1ccc(F)c(Cl)c1)c1ccc(F)c(Cl)c1 | > 10.9 | > 10.9
26 | CCOC(=O)c1c[nH]c2cc(Cl)cc(Cl)c2c1=O | > 11.5 | > 11.5
27 | Cc1c(C)c(C)c(CSC2=NCCCN2C2CCCCC2)c(C)c1C | > 8.35 | > 8.35
28 | CCOC(=O)C1=C(C)N(S(=O)(=O)c2ccc(C)cc2)C(SC)=NC1c1ccccc1 (stereo not drawn) | > 7.42 | > 7.42
29 | CC(C)(C)c1ccc(C(=O)N/N=C/c2cc(Cl)cc(Cl)c2O)cc1 | > 9.03 | > 9.03
30 | O=C(NNC(=S)Nc1cc(C(F)(F)F)cc(C(F)(F)F)c1)c1cccnc1Oc1ccccc1 | > 6.59 | > 6.59
31 | O=C(NCc1cc(C(F)(F)F)cc(C(F)(F)F)c1)c1ccc(Cl)c(Cl)c1 | > 7.93 | > 7.93
32 | FC(F)(F)c1ccc2nc(SCc3nc(-c4ccc(Cl)cc4)no3)[nH]c2c1 | > 8.03 | > 8.03
33 | N=C(NS(=O)(=O)c1ccc(Cl)c(Cl)c1)c1ccc(Cl)cc1 | > 9.07 | > 9.07
34 | COc1cccc(CNC(=S)SCC(=O)C(C)(C)C)c1 | > 10.6 | > 10.6
35 | O=C(Cc1cccs1)Nc1ccc(Cl)c(C(F)(F)F)c1 | > 10 | > 10
36 | CCOC(=O)c1c[nH]c2c(F)cc(F)cc2c1=O | > 13 | > 13
37 | CC(C)(C)NC(=S)N/N=C/c1c(O)ccc2ccccc12 | 2.97 | 6.74
38 | CCn1c2ccc(Cl)cc2c2cc(Cl)ccc21 | > 12.5 | > 12.5
39 | CC(C)(C)c1ccc(C(=O)ONC(=O)c2ccc(Cl)c(Cl)c2)cc1 | > 9.01 | > 9.01
40 | OC1(c2ccccc2)c2ccccc2-c2ccccc21 | 7.15 | > 12.8
41 | Cc1ccc(SCc2ccccc2C(=O)Nc2cc(Cl)ccc2O)cc1 | > 8.6 | > 8.6
42 | CN(C)c1ccc(C(=O)N/N=C/c2cc(Cl)cc(Cl)c2O)cc1 | > 9.37 | > 9.37
43 | OC(CN1CCCCC1)Cn1c2ccc(Br)cc2c2cc(Br)cc(Br)c21 (stereo not drawn) | > 6.05 | > 6.05
44 | O=c1c(NNc2cccc(C(F)(F)F)c2)c(CSc2ccc(Cl)cc2)[nH]n1-c1ccccc1 | > 6.72 | > 6.72
45 | Cc1nn(-c2ccccc2)nc1C(=O)NNC(=S)Nc1ccc(Cl)cc1 | > 8.53 | > 8.53
46 | FC(F)(F)c1ccc2nc(SCc3c(Cl)cccc3Cl)[nH]c2c1 | > 7.98 | > 7.98

Row | SMILES | IC50 [µM] | IC90 [µM]
47 | Cc1ccc(S(=O)(=O)c2ccc(-c3ccccc3)cc2)cc1 | > 10.7 | > 10.7
48 | Cc1onc(-c2c(Cl)cccc2Cl)c1C(=O)Nc1ccccc1C(=O)NCc1c(F)cccc1Cl | > 6.19 | > 6.19
49 | CCCCn1c(CSc2ccccn2)cn(-c2nnc(C(C)(C)C)s2)c1=O | > 8.18 | > 8.18
50 | Cc1cc(Cl)cc(/C=N/NC(=S)NC(C)(C)C)c1O | 3.66 | 3.97
51 | O=S(=O)(NCc1cc(C(F)(F)F)cc(C(F)(F)F)c1)c1cc(C(F)(F)F)cc(C(F)(F)F)c1 | > 6.35 | > 6.35
52 | COc1ccc2c3c(cccc13)C(=O)N(c1nc3ccccc3n1C)C2=O | > 9.23 | > 9.23
53 | Cc1nc2c(C)cccn2c1C(=O)NN1C(=O)CSC1c1ccccc1 (stereo not drawn) | 7.23 | > 8
54 | O=c1cc(O)c2c(=O)n3c4c(cccc4c2o1)CCC3 | > 12.3 | > 12.3
55 | CS(=O)(=O)c1ccc(C(F)(F)F)cc1[N+](=O)[O-] | > 12.3 | > 12.3
56 | O=C(NCc1cc(Cl)cc(Cl)c1)c1cc(C(F)(F)F)cc(C(F)(F)F)c1 | > 7.93 | > 7.93
57 | CCC(C)NC(=S)N/N=C/c1cc(Cl)cc(Cl)c1O (stereo not drawn) | > 10.3 | > 10.3
58 | CC(C)c1ccc(/C=N/NC(=O)CC#N)cc1 | > 14.4 | > 14.4
59 | COc1ccc2c(c1)nnc1nnc(SCC(=O)N3CCOCC3)n12 | > 9.16 | > 9.16
60 | CC1CN(S(=O)(=O)c2cc(Cl)c(Oc3ccc([N+](=O)[O-])cc3Cl)c(Cl)c2)CC(C)O1 (stereo not drawn) | > 6.66 | > 6.66
61 | O=C(CCCC(=O)Nc1cc(C(F)(F)F)cc(C(F)(F)F)c1)Nc1cc(C(F)(F)F)cc(C(F)(F)F)c1 | 1.07 | > 5.95
62 | CCCCCCCOc1ccc(C(=O)CCC(=O)O)cc1 | > 11.3 | > 11.3
63 | CCCCNC(=O)N1CCC(C(=O)c2c(C)c(C)c(C)c(C)c2C)CC1 | > 9.2 | > 9.2
64 | Fc1cccc(F)c1NC(=S)Nc1cc(C(F)(F)F)cc(C(F)(F)F)c1 | > 8.24 | > 8.24
65 | O=S(=O)(Oc1cccc2[nH]ccc12)c1ccc(Cl)cc1Cl | > 9.64 | > 9.64
66 | C/C(=N\NC(=S)NCC(C)(C)C)c1cc(F)ccc1O | > 11.1 | > 11.1
67 | CN(/N=C/c1cc(Cl)cc(Cl)c1O)c1ccc(C(F)(F)F)cc1[N+](=O)[O-] | > 8.09 | > 8.09
68 | CCOC(=O)C(NC(=O)c1ccco1)(Nc1ccc(F)c(Cl)c1)C(F)(F)F (stereo not drawn) | > 8.07 | > 8.07
69 | Cc1cc(C)c(CSC2=NCCCN2C2CCCCC2)c(C)c1 | > 8.99 | > 8.99

Row | SMILES | IC50 [µM] | IC90 [µM]
70 | COC(=O)c1cccc(NC(=S)NC(=O)c2ccc(C(C)(C)C)cc2)c1 | > 8.91 | > 8.91
71 | Cc1[nH]c(=O)c(C#N)cc1C(=O)CSc1ccc(C(C)(C)C)cc1 | > 9.69 | > 9.69
72 | CCOC(=O)c1cnc2cc(Cl)c(F)cc2c1Sc1ccc(Cl)cc1 | > 8.33 | > 8.33
73 | O=C(Nc1ccc(F)c(Cl)c1)c1cc2ccccc2s1 | > 10.8 | > 10.8
74 | O=C(NCc1cc(C(F)(F)F)cc(C(F)(F)F)c1)c1cc(Cl)cc(Cl)c1 | > 7.93 | > 7.93
75 | O=C(On1c(-c2ccccc2)nc2ccccc2c1=O)c1ccc(F)cc1 | > 9.16 | > 9.16
76 | Cc1nn(C(=O)c2c(Cl)cccc2Cl)c(C)c1Cc1c(F)cccc1Cl | 7 | > 8.02
77 | COc1cc(C(O)c2cc(C(F)(F)F)cc(C(F)(F)F)c2)cc(OC)c1OC (stereo not drawn) | 7.33 | > 8.04
78 | CC(C)(C)NC(=S)N/N=C/c1cccc(O)c1O | > 12.3 | > 12.3
79 | O=[N+]([O-])c1ccc(OCc2ccccc2)c(Cl)c1 | > 12.5 | > 12.5
80 | CCOC(=O)c1cnc2cc(Cl)c(F)cc2c1N1CCOCC1 | > 9.74 | > 9.74
81 | S=c1[nH]nc(-c2cccnc2Oc2ccccc2)n1-c1ccc(Cl)c(Cl)c1 | > 7.95 | > 7.95
82 | Nn1cc(C(F)(F)F)cc(Cl)c1=[N+]1CCNCC1 | > 7.29 | > 7.29
83 | O=[N+]([O-])c1ccc(CSc2nc3cc(Cl)c(F)cc3[nH]2)cc1 | > 7.88 | > 7.88
84 | OC(Cc1ccccc1)(c1ccccc1)c1ccccc1/N=C/c1ccc(Cl)c(Cl)c1 (stereo not drawn) | > 7.39 | > 7.39
85 | O=C(Nc1cc(Cl)cc(Cl)c1)c1ccccc1O | 3.79 | 4.44
86 | O=C1/C(=C/c2ccccc2Cl)CCC/C1=C\c1ccccc1Cl | > 9.61 | > 9.61
87 | CN1C/C(=C\c2ccccc2)C(=O)/C(=C/c2ccccc2)C1 | > 11.4 | > 11.4
88 | NC(/C=C/c1cc(C(F)(F)F)cc(C(F)(F)F)c1)=N\O | > 11.1 | > 11.1
89 | CN1C/C(=C\c2ccc(Cl)cc2)C(=O)/C(=C/c2ccc(Cl)cc2)C1 | 7 | > 9.21
